Laboratory results from ChEMBL document CHEMBL3994622, “Design and synthesis of new RAF kinase-inhibiting antiproliferative quinoline derivatives. Part 2: Diarylurea derivatives” (Eur J Med Chem, 2017).

Assays:
Type in all cases: functional
K562 = assay: Growth inhibition of human K562 cells assessed as cell growth at 10 uM incubated for 48 hrs by sulforhodamine B assay relative to control; conditions: K562, 48 h, read-out: Activity
MOLT-4 = assay: Growth inhibition of human MOLT4 cells assessed as cell growth at 10 uM incubated for 48 hrs by sulforhodamine B assay relative to control; conditions: MOLT-4, 48 h, read-out: Activity
SR = assay: Growth inhibition of human SR cells assessed as cell growth at 10 uM incubated for 48 hrs by sulforhodamine B assay relative to control; conditions: read-out: Activity
A549 = assay: Growth inhibition of human A549/ATCC cells assessed as cell growth at 10 uM incubated for 48 hrs by sulforhodamine B assay relative to control; conditions: A549, 48 h, read-out: Activity
EKVX = assay: Growth inhibition of human EKVX cells assessed as cell growth at 10 uM incubated for 48 hrs by sulforhodamine B assay relative to control; conditions: read-out: Activity
NCI-H226 = assay: Growth inhibition of human NCI-H226 cells assessed as cell growth at 10 uM incubated for 48 hrs by sulforhodamine B assay relative to control; conditions: NCI-H226, 48 h, read-out: Activity
NCI-H460 = assay: Growth inhibition of human NCI-H460 cells assessed as cell growth at 10 uM incubated for 48 hrs by sulforhodamine B assay relative to control; conditions: NCI-H460, 48 h, read-out: Activity
NCI-H522 = assay: Growth inhibition of human NCI-H522 cells assessed as cell growth at 10 uM incubated for 48 hrs by sulforhodamine B assay relative to control; conditions: NCI-H522, 48 h, read-out: Activity
COLO 205 = assay: Growth inhibition of human COLO205 cells assessed as cell growth at 10 uM incubated for 48 hrs by sulforhodamine B assay relative to control; conditions: COLO 205, 48 h, read-out: Activity
HCC 2998 = assay: Growth inhibition of human HCC2998 cells assessed as cell growth at 10 uM incubated for 48 hrs by sulforhodamine B assay relative to control; conditions: HCC 2998, 48 h, read-out: Activity
HCT-15 = assay: Growth inhibition of human HCT15 cells assessed as cell growth at 10 uM incubated for 48 hrs by sulforhodamine B assay relative to control; conditions: HCT-15, 48 h, read-out: Activity
HT-29 = assay: Growth inhibition of human HT-29 cells assessed as cell growth at 10 uM incubated for 48 hrs by sulforhodamine B assay relative to control; conditions: HT-29, 48 h, read-out: Activity
SF-268 = assay: Growth inhibition of human SF268 cells assessed as cell growth at 10 uM incubated for 48 hrs by sulforhodamine B assay relative to control; conditions: SF-268, 48 h, read-out: Activity
SF-295 = assay: Growth inhibition of human SF295 cells assessed as cell growth at 10 uM incubated for 48 hrs by sulforhodamine B assay relative to control; conditions: SF-295, 48 h, read-out: Activity
SNB-19 = assay: Growth inhibition of human SNB19 cells assessed as cell growth at 10 uM incubated for 48 hrs by sulforhodamine B assay relative to control; conditions: SNB-19, 48 h, read-out: Activity
SNB-75 = assay: Growth inhibition of human SNB75 cells assessed as cell growth at 10 uM incubated for 48 hrs by sulforhodamine B assay relative to control; conditions: SNB-75, 48 h, read-out: Activity
LOX IMVI = assay: Growth inhibition of human LOXIMVI cells assessed as cell growth at 10 uM incubated for 48 hrs by sulforhodamine B assay relative to control; conditions: read-out: Activity
M14 = assay: Growth inhibition of human M14 cells assessed as cell growth at 10 uM incubated for 48 hrs by sulforhodamine B assay relative to control; conditions: M14, 48 h, read-out: Activity
MDA-MB-435 = assay: Growth inhibition of human MDA-MB-435 cells assessed as cell growth at 10 uM incubated for 48 hrs by sulforhodamine B assay relative to control; conditions: MDA-MB-435, 48 h, read-out: Activity
SK-MEL-2 = assay: Growth inhibition of human SK-MEL-2 cells assessed as cell growth at 10 uM incubated for 48 hrs by sulforhodamine B assay relative to control; conditions: SK-MEL-2, 48 h, read-out: Activity
UACC-257 = assay: Growth inhibition of human UACC257 cells assessed as cell growth at 10 uM incubated for 48 hrs by sulforhodamine B assay relative to control; conditions: UACC-257, 48 h, read-out: Activity
UACC-62 = assay: Growth inhibition of human UACC62 cells assessed as cell growth at 10 uM incubated for 48 hrs by sulforhodamine B assay relative to control; conditions: UACC-62, 48 h, read-out: Activity
IGROV-1 = assay: Growth inhibition of human IGROV1 cells assessed as cell growth at 10 uM incubated for 48 hrs by sulforhodamine B assay relative to control; conditions: IGROV-1, 48 h, read-out: Activity
OVCAR-4 = assay: Growth inhibition of human OVCAR4 cells assessed as cell growth at 10 uM incubated for 48 hrs by sulforhodamine B assay relative to control; conditions: OVCAR-4, 48 h, read-out: Activity
OVCAR-5 = assay: Growth inhibition of human OVCAR5 cells assessed as cell growth at 10 uM incubated for 48 hrs by sulforhodamine B assay relative to control; conditions: OVCAR-5, 48 h, read-out: Activity
A498 = assay: Growth inhibition of human A498 cells assessed as cell growth at 10 uM incubated for 48 hrs by sulforhodamine B assay relative to control; conditions: A498, 48 h, read-out: Activity
ACHN = assay: Growth inhibition of human ACHN cells assessed as cell growth at 10 uM incubated for 48 hrs by sulforhodamine B assay relative to control; conditions: read-out: Activity
CAKI-1 = assay: Growth inhibition of human Caki1 cells assessed as cell growth at 10 uM incubated for 48 hrs by sulforhodamine B assay relative to control; conditions: CAKI-1, 48 h, read-out: Activity
DU-145 = assay: Growth inhibition of human DU145 cells assessed as cell growth at 10 uM incubated for 48 hrs by sulforhodamine B assay relative to control; conditions: DU-145, 48 h, read-out: Activity
MCF7 = assay: Growth inhibition of human MCF7 cells assessed as cell growth at 10 uM incubated for 48 hrs by sulforhodamine B assay relative to control; conditions: MCF7, 48 h, read-out: Activity
Hs-578T = assay: Growth inhibition of human Hs 578T cells assessed as cell growth at 10 uM incubated for 48 hrs by sulforhodamine B assay relative to control; conditions: read-out: Activity
BT-549 = assay: Growth inhibition of human BT549 cells assessed as cell growth at 10 uM incubated for 48 hrs by sulforhodamine B assay relative to control; conditions: BT-549, 48 h, read-out: Activity
T47D = assay: Growth inhibition of human T47D cells assessed as cell growth at 10 uM incubated for 48 hrs by sulforhodamine B assay relative to control; conditions: read-out: Activity

Compound | growth at 10 µM (A549) [%] | growth at 10 µM (EKVX) [%] | growth at 10 µM (NCI-H226) [%] | growth at 10 µM (NCI-H460) [%] | growth at 10 µM (NCI-H522) [%] | growth at 10 µM (COLO 205) [%] | growth at 10 µM (HCC 2998) [%] | growth at 10 µM (HCT-15) [%] | growth at 10 µM (HT-29) [%] | growth at 10 µM (SF-268) [%] | growth at 10 µM (SF-295) [%] | growth at 10 µM (SNB-19) [%] | growth at 10 µM (SNB-75) [%] | growth at 10 µM (LOX IMVI) [%] | growth at 10 µM (M14) [%] | growth at 10 µM (MDA-MB-435) [%] | growth at 10 µM (SK-MEL-2) [%] | growth at 10 µM (UACC-257) [%] | growth at 10 µM (UACC-62) [%] | growth at 10 µM (IGROV-1) [%] | also measured
COc1cc2cc(Sc3ccc(NC(=O)Nc4ccc(Cl)c(Cl)c4)cc3)c(C)nc2cc1OC | 59.5 | 69.4 | 90.9 | 74.6 | 66 | 87.8 | 101 | 75.9 | 91.9 | 72.6 | 56.5 | 84.9 | 86.4 | 94.7 | 81.3 | 76.7 | 72.6 | 90 | 69.5 | 75.3 | growth at 10 µM (K562): 52.5%; growth at 10 µM (MOLT-4): 38.1%; growth at 10 µM (SR): 52.7%; growth at 10 µM (OVCAR-4): 78.2%; growth at 10 µM (OVCAR-5): 84.7%; growth at 10 µM (A498): 73%; growth at 10 µM (ACHN): 72.6%; growth at 10 µM (CAKI-1): 64.5%; growth at 10 µM (DU-145): 75.5%; growth at 10 µM (MCF7): 75.3%; growth at 10 µM (Hs-578T): 85.6%; growth at 10 µM (BT-549): 77.8%
COc1cc2cc(Oc3ccc(NC(=O)Nc4cc(C(F)(F)F)cc(C(F)(F)F)c4)cc3)c(C)nc2cc1OC | 5.93 | 2.88 | -10.2 | 7 | -33.4 | -81.2 | 21.3 | 2.75 | 4.89 | 15.3 | -59.2 | 15.5 | 9.73 | 1.98 | 9.04 | -2.55 | -30.4 | -4.68 | -34.6 | 19.9 | growth at 10 µM (OVCAR-4): 27.9%; growth at 10 µM (OVCAR-5): 14.6%; growth at 10 µM (A498): -11.5%; growth at 10 µM (ACHN): 5.82%; growth at 10 µM (CAKI-1): 6.4%; growth at 10 µM (DU-145): 19.5%; growth at 10 µM (MCF7): 0.59%; growth at 10 µM (Hs-578T): -10.7%; growth at 10 µM (BT-549): 1.44%; growth at 10 µM (T47D): 7.52%
Cc1nc2cc(O)c(O)cc2cc1Oc1ccc(NC(=O)Nc2ccc(Cl)c(Cl)c2)cc1 | 50.5 | 98.5 | 38.3 | 62.1 | 1.87 | 34.7 | 93.4 | 37.2 | 48 | 65.5 | 95.9 | 49 | 75.8 | 0.46 | 80.8 | 54.2 | 77.7 | 88.5 | 84.5 | 67.1 | growth at 10 µM (K562): 53.9%; growth at 10 µM (MOLT-4): 12.6%; growth at 10 µM (SR): 8.92%; growth at 10 µM (OVCAR-4): 67.7%; growth at 10 µM (OVCAR-5): 122%; growth at 10 µM (A498): 118%; growth at 10 µM (ACHN): 39%; growth at 10 µM (CAKI-1): 27.3%; growth at 10 µM (DU-145): 60.3%; growth at 10 µM (MCF7): 76.2%; growth at 10 µM (Hs-578T): 105%; growth at 10 µM (BT-549): 82.2%; growth at 10 µM (T47D): 62.2%
